Measured values reported in patent US10543258B2, “Antibacterial composition containing ADK protein as active ingredient, or composition for preventing or treating sepsis” (priority 2014, dated 2020).

Tests used:
E. coli K1 [1] = experiment: Sepsis animal model, survival rate; type: in vivo, BALB/c mice; conditions: gentamicin 100 μg/kg intraperitoneally; FIG. 12
E. coli K1 [2] = experiment: Sepsis animal model, serum analysis; type: in vivo, BALB/c mice; conditions: 12 hours after sepsis induction; LAL assay kit; FIG. 15
Description: Twelve hours after sepsis induction, levels of inflammatory cytokines (TNF-α, IL-6, and IL-1β), AST, ALT, BUN, and endotoxins in sera isolated from mice were analyzed. Here, a cytokine concentration was measured using an ELISA kit (eBiosciences, San Diego, Calif.), and endotoxins were analyzed using an endotoxin detection kit (LAL assay kit, Thermo Fisher Scientific, Bremen, Germany).

S. aureus = experiment: Growth of bacteria in LB broth, CFU over time; type: cell-based, Staphylococcus aureus; conditions: 37° C., Adk 20, 50, 100 μg/ml, ampicillin 100 μg/ml, FIG. 4
Description: (§1) To verify the antibacterial activity of the recombinant ADK protein obtained in Example 1, the effect of the ADK protein on the growth of gram-negative bacteria such as E. coli and P. aeruginosa and a gram-positive bacterium such as S. aureus was analyzed.
(§2) More specifically, 1×10^5 CFU of strains were put into a 10 ml LB broth, and an antibiotic (ampicillin) and the ADK protein were added respectively according to five conditions as follows (Group 1: LB broth media with 100 μg/ml ampicillin, Group 2: LB broth media with 20 μg/ml Adk, Group 3: LB broth media with 50 μg/ml Adk, Group 4: LB broth media with 100 μg/ml Adk, Group 5: Non-antibacterial agent LB broth media). The strains were cultured in a 37° C. shaking incubator, 100 μl aliquots of each group was taken at 3-hour intervals and diluted with an LB broth in predetermined ratios, followed by plating the resulting cells on an LB agar (Biobasic, Amherst, N.Y.) plate. The cells were cultured again in a 37° C. incubator overnight, and then CFU values over time were calculated by counting the number of colonies on the LB agar plate.

E. coli = experiment: Growth of bacteria in LB broth, CFU over time; type: cell-based, Escherichia coli; conditions: 37° C., Adk 20, 50, 100 μg/ml, ampicillin 100 μg/ml, FIG. 2
Description: as §1, §2

P. aeruginosa = experiment: Growth of bacteria in LB broth, CFU over time; type: cell-based, Pseudomonas aeruginosa; conditions: 37° C., Adk 20, 50, 100 μg/ml, ampicillin 100 μg/ml, FIG. 3

Compound	time after sepsis induction at which all mice were dead (E. coli K1 [1])	amount of endotoxins in mouse sera (E. coli K1 [2])	growth of S. aureus (CFU over time) (S. aureus)	growth of E. coli (CFU over time) (E. coli)	growth of P. aeruginosa (CFU over time) (P. aeruginosa)
gentamicin	30 h	a significant difference from the negative control (CON) was not observed			
CC1(C)S[C@@H]2[C@H](NC(=O)[C@H](N)c3ccccc3)C(=O)N2[C@H]1C(=O)O [ampicillin]			inhibited	inhibited	inhibited
